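Assay format: 96-well plates, 48-hour exposure. GI50 is the concentration that inhibits growth by half.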 Active and inactive are the calls of the source. No stated cut-off is given here; in the data, active = GI50 up to about 1.1 µM and inactive = higher.

The values that follow come from ChEMBL document CHEMBL1201862, “PubChem BioAssay data set” (2004).

Among the test systems are 786-0; ACHN; CCRF-CEM; HCT-15; K562; M14; MOLT-4; SF-295; SK-MEL-28; SK-MEL-5; SK-OV-3; SNB-19; TK-10; UACC-257; COLO 205; OVCAR-3.
Holding throughout (experiment): growth of human tumour cells (NCI), 48 h

Take `CN(Cc1ccccc1)c1nc(=[N+](C)C)ss1`: the GI50 in the experiment with 786-0 is > 100 µM (inactive); in the experiment on ACHN, > 100 µM (inactive); in the experiment with CCRF-CEM, 3.55 µM (inactive); in the experiment with HCT-15, greater than 100 µM; in the experiment on K562 it was 23.4 µM (inactive); with M14, > 100 µM (inactive). Also, the GI50 is 32.1 µM (inactive) in the experiment on MOLT-4; > 100 µM (inactive) with SF-295; > 100 µM (inactive) in the experiment on SK-MEL-28; 58.6 µM (inactive) with SK-MEL-5; 96.8 µM (inactive) in the experiment on SK-OV-3; 86.5 µM (inactive) in the experiment with SNB-19. Also, the GI50 with TK-10 is 35.2 µM (inactive); with UACC-257 it was 56.5 µM (inactive).

`COc1ccc(/C=C/C(=O)c2sc(NC(=S)NC(=O)c3ccc(Cl)cc3)nc2C)cc1OC`: the GI50 in the experiment on 786-0 is 83.8 µM (inactive); with ACHN it was 59.6 µM (inactive); with CCRF-CEM it was 26.2 µM (inactive); in the experiment with COLO 205, 37.2 µM (inactive); in the experiment on HCT-15 it was 35 µM; in the experiment with K562, 27.4 µM (inactive). The GI50 is 52.6 µM (inactive) with M14; 27.2 µM (inactive) in the experiment with MOLT-4; 38.4 µM (inactive) with OVCAR-3; 77.4 µM (inactive) in the experiment with SF-295; 35.9 µM (inactive) with SK-MEL-28; > 100 µM (inactive) with SK-OV-3. In addition, the GI50 with SNB-19 is 40.5 µM (inactive); in the experiment on TK-10, > 100 µM (inactive); in the experiment on UACC-257 it was 47.5 µM (inactive).

Regarding `CCCC(=O)CC(C)C(=O)C(=O)NC12CC3CC(CC(C3)C1)C2` (configuration not stated), the GI50 in the experiment with 786-0 was > 100 µM (inactive); in the experiment with ACHN, > 100 µM (inactive); with CCRF-CEM it was > 100 µM (inactive); in the experiment on COLO 205, > 100 µM (inactive); in the experiment on HCT-15 it was greater than 100 µM; with K562, > 100 µM (inactive). For the same molecule, the GI50 in the experiment with M14, in the experiment with MOLT-4, with OVCAR-3, in the experiment on SF-295, in the experiment on SK-MEL-28 and in the experiment with SK-MEL-5 was > 100 µM (inactive) each time. The GI50 in the experiment with SNB-19, in the experiment with TK-10 and in the experiment on UACC-257 was > 100 µM (inactive) throughout.

`CC(=O)N1c2ccccc2C2=CC3C4C(=O)N(c5ccccc5)C(=O)C4C21C1C(=O)N(c2ccccc2)C(=O)C31` (configuration not stated): the GI50 in the experiment with 786-0 was 37.2 µM (inactive); in the experiment with ACHN it was 31 µM (inactive); in the experiment with CCRF-CEM, 16.2 µM (inactive); with COLO 205, 59.7 µM (inactive); with HCT-15, 17.1 µM; in the experiment with K562, 15.1 µM (inactive). The GI50 was 30.8 µM (inactive) in the experiment with MOLT-4; 7.06 µM (inactive) with SF-295; > 100 µM (inactive) in the experiment with SK-MEL-28; 23.1 µM (inactive) in the experiment on SK-OV-3; 16.4 µM (inactive) in the experiment on SNB-19; > 100 µM (inactive) in the experiment with TK-10. For the same molecule, in the experiment with UACC-257, the GI50 was 13.8 µM (inactive).

Consider `COc1ccc2c(c1)C(CCN)C(=O)N2` (configuration not stated), for which the GI50 in the experiment with 786-0 was > 100 µM (inactive); with ACHN it was > 100 µM (inactive); with CCRF-CEM, > 100 µM (inactive); with COLO 205, > 100 µM (inactive); in the experiment on HCT-15, greater than 100 µM; with K562 it was > 100 µM (inactive). The GI50 in the experiment on M14, in the experiment with MOLT-4, in the experiment with OVCAR-3, in the experiment with SF-295, in the experiment with SK-MEL-28 and with SK-MEL-5 was > 100 µM (inactive) each time. The GI50 with SK-OV-3, with TK-10 and in the experiment on UACC-257 was > 100 µM (inactive) in each case.

For the molecule `CN1CC(=O)N2Cc3ccccc3-n3cccc3C2C1` (configuration not stated), the GI50 was > 100 µM (inactive) in the experiment with 786-0; > 100 µM (inactive) in the experiment on ACHN; > 100 µM (inactive) in the experiment on COLO 205; greater than 100 µM in the experiment with HCT-15; > 100 µM (inactive) in the experiment on M14; > 100 µM (inactive) in the experiment on OVCAR-3. For the same molecule, the GI50 with SF-295, in the experiment on SK-MEL-28, in the experiment with SK-MEL-5, with SK-OV-3, in the experiment with SNB-19 and in the experiment with TK-10 was > 100 µM (inactive) in each case. Moreover, the GI50 in the experiment with UACC-257 was > 100 µM (inactive).

Turning to `O=C1c2ccncc2C(=O)c2c(O)ccc(O)c21`, the GI50 is 6.38 µM (inactive) with 786-0; 4.27 µM (inactive) with ACHN; 4.33 µM (inactive) in the experiment with CCRF-CEM; 3.72 µM (inactive) in the experiment with COLO 205; 4.52 µM with HCT-15; 10.1 µM (inactive) with K562. Also, the GI50 with M14 was 4.65 µM (inactive); in the experiment with MOLT-4, 5.89 µM (inactive); in the experiment on OVCAR-3, 1.95 µM (inactive); in the experiment with SF-295, 12.6 µM (inactive); with SK-MEL-28, 11.9 µM (inactive); in the experiment with SNB-19, 12.4 µM (inactive). The GI50 with TK-10 was 27.5 µM (inactive).

`O=C(NCCCN1CCN(CCCNC(=O)c2cnc3ccccc3n2)CC1)c1cnc2ccccc2n1`: the GI50 was > 100 µM (inactive) in the experiment with 786-0; 74.1 µM (inactive) in the experiment with ACHN; > 100 µM (inactive) in the experiment with CCRF-CEM; > 100 µM (inactive) with COLO 205; greater than 100 µM in the experiment on HCT-15; > 100 µM (inactive) in the experiment with K562. Also, the GI50 is > 100 µM (inactive) in the experiment on M14; 44.8 µM (inactive) with MOLT-4; > 100 µM (inactive) in the experiment with OVCAR-3; > 100 µM (inactive) in the experiment with SF-295; > 100 µM (inactive) in the experiment on SK-MEL-28; > 100 µM (inactive) in the experiment with SK-MEL-5. For the same molecule, the GI50 in the experiment with SK-OV-3, with SNB-19 and in the experiment with UACC-257 was > 100 µM (inactive) each time.

For `COc1ccc(C(C#N)NNc2nc(C)cc(O)n2)cc1OC` (configuration not stated), the GI50 is > 100 µM (inactive) with 786-0; > 100 µM (inactive) with ACHN; > 100 µM (inactive) with CCRF-CEM; > 100 µM (inactive) with COLO 205; greater than 100 µM in the experiment on HCT-15; > 100 µM (inactive) in the experiment on K562. Moreover, the GI50 in the experiment on M14, in the experiment with MOLT-4, in the experiment with OVCAR-3, in the experiment on SF-295, in the experiment with SK-MEL-28 and in the experiment on SK-MEL-5 was > 100 µM (inactive) each time. Further, the GI50 with SK-OV-3, with TK-10 and in the experiment on UACC-257 was > 100 µM (inactive) each time.

Regarding `CC1CCC2(C)C(CC=C(C=O)C2(O)C=O)C12CO2` (configuration not stated), the GI50 with 786-0 was 2.4 µM (inactive); in the experiment on ACHN, 1.76 µM (inactive); with CCRF-CEM, 1.26 µM (inactive); with COLO 205, 1.33 µM (inactive); with HCT-15, 2.14 µM; in the experiment on K562, 1.7 µM (inactive). For the same molecule, the GI50 in the experiment with M14 was 1.36 µM (inactive); with MOLT-4, 1.87 µM (inactive); in the experiment on OVCAR-3 it was 0.481 µM (active); in the experiment on SF-295, 3.31 µM (inactive); in the experiment on SK-MEL-28 it was 1.79 µM (inactive); in the experiment with SK-OV-3, 3.27 µM (inactive). Further, the values for the GI50 in the experiment with SNB-19, with TK-10 and in the experiment on UACC-257 were 9.66 µM (inactive), 1.97 µM (inactive) and 1.52 µM (inactive), respectively.

`NC(=S)N/N=C1/C(=O)N(c2ccccc2)C(=O)C1C(=O)Nc1ccccc1` (configuration not stated): the GI50 with 786-0 is > 100 µM (inactive); in the experiment on ACHN, > 100 µM (inactive); in the experiment with COLO 205, > 100 µM (inactive); in the experiment with HCT-15 it was greater than 100 µM; in the experiment on M14, > 100 µM (inactive); in the experiment on MOLT-4, > 100 µM (inactive). The GI50 in the experiment with OVCAR-3, in the experiment on SF-295, in the experiment on SK-MEL-28, in the experiment with SK-MEL-5, with SK-OV-3 and in the experiment with SNB-19 was > 100 µM (inactive) each time. Besides, the GI50 in the experiment on TK-10 and in the experiment with UACC-257 was > 100 µM (inactive) throughout.

On to `CC(=O)O[C@H]1CCC2[C@@H]3CCC4Nc5c(cnn5-c5ccccc5)C[C@]4(C)C3CC[C@@]21C` (some centres not stated), for which the GI50 was 8.49 µM (inactive) in the experiment with 786-0; 14.6 µM (inactive) in the experiment with ACHN; 7.08 µM (inactive) in the experiment on CCRF-CEM; 14.5 µM (inactive) in the experiment with COLO 205; 13.2 µM in the experiment on HCT-15; 12.6 µM (inactive) in the experiment on K562. Moreover, the GI50 with M14 is 14.4 µM (inactive); in the experiment on MOLT-4, 6.93 µM (inactive); with OVCAR-3, 6.92 µM (inactive); with SF-295, 2.97 µM (inactive); in the experiment with SK-MEL-5, 7.94 µM (inactive); with SK-OV-3, 18.7 µM (inactive). The GI50 in the experiment on SNB-19 is 14.5 µM (inactive); with TK-10, 19.2 µM (inactive); in the experiment with UACC-257, 11.5 µM (inactive).

`O=C1O[C@@H](c2ccccc2)C[C@@H]1CN1CCOCC1`: the GI50 in the experiment on 786-0 was > 100 µM (inactive); with ACHN, > 100 µM (inactive); with CCRF-CEM it was > 100 µM (inactive); in the experiment on COLO 205, > 100 µM (inactive); in the experiment with HCT-15 it was greater than 100 µM; in the experiment on K562, > 100 µM (inactive). In addition, the GI50 in the experiment with M14, with MOLT-4, in the experiment on OVCAR-3, with SF-295, in the experiment on SK-MEL-28 and in the experiment with SK-MEL-5 was > 100 µM (inactive) each time. In addition, the GI50 with SK-OV-3, in the experiment on TK-10 and with UACC-257 was > 100 µM (inactive) throughout.

Take `COc1cc(NS(C)(=O)=O)ccc1NCc1c2ccccc2nc2ccccc12`: the GI50 with 786-0 was 40.6 µM (inactive); in the experiment with ACHN, 29.4 µM (inactive); in the experiment on CCRF-CEM, 4.18 µM (inactive); in the experiment on COLO 205, 70.1 µM (inactive); in the experiment on HCT-15 it was 21.7 µM; with K562, 7.87 µM (inactive). In addition, the GI50 in the experiment on M14 was 52.6 µM (inactive); in the experiment with MOLT-4 it was 3.27 µM (inactive); in the experiment on OVCAR-3, 43.5 µM (inactive); with SF-295, 64 µM (inactive); with SK-MEL-28, 49.7 µM (inactive); in the experiment with SK-OV-3 it was > 100 µM (inactive). Besides, the GI50 is 51.8 µM (inactive) with SNB-19, > 100 µM (inactive) with TK-10 and 32.9 µM (inactive) in the experiment on UACC-257.
